Measurements taken from patent US20090186865A1, “Lyophilization Process” (SANDOZ AG, priority 2005, published 2009).

Test: Stability studies of dissolved products versus temperature
Type: physicochemical
Details: in aqueous solution

Inflexion point of degradation of dissolved product with temperature	SMILES
around 15 °C	CCN1CCN(C(=O)N[C@@H](C(=O)N[C@@H]2C(=O)N3[C@@H]2SC(C)(C)[C@@H]3C(=O)O)c2ccccc2)C(=O)C1=O [Piperacillin]
around 15 °C	C[C@]1(Cn2ccnn2)[C@H](C(=O)O)N2C(=O)C[C@H]2S1(=O)=O [Tazobactam]
